According to ChEMBL document CHEMBL1201862, “PubChem BioAssay data set” (2004):
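In this assay, cells in 96-well plates receive the compound at five concentrations for 48 hours. Endpoints are linearly interpolated between the surrounding concentrations. At the GI50, growth is halved.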 Active and inactive are the calls of the source. Cut-off read from the data, not from the text of the source: active = GI50 up to about 1.1 µM and inactive = higher.

Legend:
Test in all cases: NCI anticancer screen, dose series, 48 h
[1] = system: ACHN
[2] = system: EKVX
[3] = system: HCT-15
[4] = system: HL-60
[5] = system: HOP-92
[6] = system: HT-29
[7] = system: KM12
[8] = system: MDA-MB-435
[9] = system: NCI-H226
[10] = system: NCI-H23
[11] = system: NCI-H460
[12] = system: PC-3
[13] = system: RPMI-8226
[14] = system: RXF 393
[15] = system: SF-295
[16] = system: SK-MEL-2
[17] = system: SK-OV-3
[18] = system: SN12C
[19] = system: U-251
[20] = system: UACC-62

Measured: GI50

COc1cc(C2C3=C(COC3=O)Oc3cc4c(cc32)OCO4)ccc1OC(C)=O (stereo not given)
inactive: [2] 1.21 µM | [5] 6 µM | [9] 5.14 µM | [18] 2.19 µM
0.468 µM: [3]
active: [1] 0.55 µM | [4] 0.188 µM | [6] 0.346 µM | [7] 0.255 µM | [8] 0.0263 µM | [10] 0.67 µM | [11] 0.45 µM | [12] 0.186 µM | [13] 0.34 µM | [14] 0.67 µM | [15] 0.127 µM | [16] 0.684 µM | [17] 0.334 µM | [19] 0.492 µM | [20] 0.54 µM

ClCCN1CCO/C1=N/c1ccc2c(c1)CCCC2
inactive: [1] 7.05 µM | [2] 14 µM | [4] 4.25 µM | [5] 11.2 µM | [6] 14.4 µM | [7] 17.9 µM | [8] 10.5 µM | [9] 13.5 µM | [10] 8.95 µM | [11] 18.8 µM | [12] 4.44 µM | [13] 4.76 µM | [14] 8.39 µM | [15] 12.1 µM | [16] 13.7 µM | [17] 20.7 µM | [18] 12.6 µM | [19] 4.65 µM | [20] 11.3 µM
20 µM: [3]

C1C2CC3CC1CC(Nc1nc(NC45CC6CC(CC(C6)C4)C5)nc(NC45CC6CC(CC(C6)C4)C5)n1)(C2)C3
inactive: [1] 51.2 µM | [2] > 43.5 µM | [4] 39.3 µM | [5] > 100 µM | [6] > 100 µM | [7] 22.1 µM | [8] > 56.4 µM | [9] > 100 µM | [10] > 43.9 µM | [11] 66.4 µM | [12] > 67.3 µM | [13] 24.5 µM | [14] 39 µM | [15] > 56.1 µM | [16] > 70 µM | [17] > 100 µM | [18] > 100 µM | [19] 43.8 µM | [20] > 44.7 µM
62.1 µM: [3]

CC1=NN(C(=O)c2ccccc2O)C(=O)/C1=C/c1ccco1
2.22 µM: [3]
active: [8] 0.581 µM | [14] 0.171 µM | [20] 0.436 µM
inactive: [1] 2.26 µM | [2] 3.06 µM | [4] 1.49 µM | [5] 7.03 µM | [6] 12.4 µM | [7] 7.01 µM | [9] 3.46 µM | [10] 1.53 µM | [11] 1.59 µM | [12] 3.04 µM | [13] 5.57 µM | [15] 3.58 µM | [16] 5.02 µM | [17] 5.7 µM | [18] 2.96 µM | [19] 6.89 µM

C=C1C(=O)O[C@H]2[C@H](OC(C)=O)[C@@H](C)CCC/C(C)=C/CC[C@@]3(C)O[C@@H]3C[C@@H]12
2.31 µM: [3]
active: [4] 0.398 µM
inactive: [1] 1.72 µM | [2] 3.42 µM | [5] 1.92 µM | [6] 2.94 µM | [7] 6.44 µM | [8] 3.24 µM | [9] 1.5 µM | [10] 4.04 µM | [11] 5.26 µM | [12] 5.25 µM | [13] 1.4 µM | [14] 1.87 µM | [15] 13.2 µM | [16] 6.01 µM | [17] 15.6 µM | [18] 1.61 µM | [19] 6.34 µM | [20] 4.11 µM
